Data taken from ChEMBL document CHEMBL4229345, “Inhibition of trypanosome alternative oxidase without its N-terminal mitochondrial targeting signal (ΔMTS-TAO) by cationic and non-cationic 4-hydroxybenzoate and 4-alkoxybenzaldehyde derivatives active against T. brucei and T. congolense” (Eur J Med Chem, 2018).

What was measured:
[1] = tested on: Trypanosoma brucei brucei; experiment: Anti-parasitic activity against bloodstream trypomastigote stage of wild-type Trypanosoma brucei brucei Lister 427 after 48 hrs in presence of 5 mM glycerol by resazurin-based assay; assay type: functional, organism-based; conditions: Lister 427, 48 h
Trypanosoma brucei = experiment: Anti-parasitic activity against bloodstream trypomastigote stage of pentamidine/diminazene/melaminophenyl arsenical resistant Trypanosoma brucei B48 after 48 hrs by resazurin-based assay; assay type: functional, organism-based; conditions: B48, 48 h
[2] = Inhibition of recombinant N-terminal His6 tagged SUMO-fused Trypanosoma brucei brucei TC221 TAO MTS deletion mutant expressed in Escherichia coli FN102 preincubated for 2 mins followed by ubiquinol-1 addition measured over 2 mins by double beam-dual wavelength UV-spectrophotometry
[3] = tested on: Trypanosoma brucei brucei; experiment: Anti-parasitic activity against bloodstream trypomastigote stage of wild-type Trypanosoma brucei brucei Lister 427 after 48 hrs by resazurin-based assay; assay type: functional, organism-based; conditions: Lister 427, 48 h
[4] = Cytotoxicity against HFF cells assessed as reduction in cell viability after 30 hrs by resazurin-based assay; conditions: human
Trypanosoma congolense = experiment: Anti-parasitic activity against bloodstream form of Trypanosoma congolense IL3000 after 48 hrs by resazurin-based assay; assay type: functional, organism-based; conditions: IL3000, 48 h
[5] = tested on: Trypanosoma brucei brucei; experiment: Anti-parasitic activity against bloodstream trypomastigote stage of Trypanosoma brucei brucei with AQP2/3-dd knock out after 48 hrs by resazurin-based assay; assay type: functional, organism-based
[6] = tested on: Trypanosoma brucei brucei; experiment: Anti-parasitic activity against bloodstream trypomastigote stage of Trypanosoma brucei brucei with AQP triple knock out after 48 hrs by resazurin-based assay; assay type: functional, organism-based
[7] = tested on: Trypanosoma brucei brucei; experiment: Resistance factor, ratio of EC50 for bloodstream trypomastigote stage of Trypanosoma brucei brucei AQP triple knock out to EC50 for bloodstream trypomastigote stage of wild-type Trypanosoma brucei brucei Lister 427; assay type: functional
[8] = tested on: Trypanosoma brucei brucei; experiment: Resistance factor, ratio of EC50 for bloodstream trypomastigote stage of Trypanosoma brucei brucei with AQP2/3-dd knock out to EC50 for bloodstream trypomastigote stage of wild-type Trypanosoma brucei brucei Lister 427; assay type: functional
[9] = Resistance factor, ratio of EC50 for bloodstream trypomastigote stage of pentamidine/diminazene/melaminophenyl arsenical resistant Trypanosoma brucei B48 to EC50 for bloodstream trypomastigote stage of wild-type Trypanosoma brucei brucei Lister 427; assay type: functional
[10] = tested on: Trypanosoma brucei brucei; experiment: Resistance factor, ratio of EC50 for bloodstream trypomastigote stage of wild-type Trypanosoma brucei brucei Lister 427 in presence of 5 mM glycerol to EC50 for bloodstream trypomastigote stage of wild-type Trypanosoma brucei brucei Lister 427; assay type: functional
[11] = Selectivity index, ratio of CC50 for HFF cells to EC50 for bloodstream trypomastigote stage of wild-type Trypanosoma brucei brucei Lister 427; assay type: toxicity; conditions: human, read-out: Ratio CC50/EC50
[12] = Selectivity index, ratio of CC50 for HFF cells to EC50 for bloodstream form of Trypanosoma congolense IL3000; assay type: toxicity; conditions: human, read-out: Ratio CC50/EC50
[13] = Selectivity index, ratio of CC50 for HEK cells to EC50 for bloodstream trypomastigote stage of wild-type Trypanosoma brucei brucei Lister 427; assay type: toxicity; conditions: human, read-out: Ratio CC50/EC50
[14] = Cytotoxicity against HEK cells assessed as reduction in cell viability after 30 hrs by resazurin-based assay; conditions: human

| Structure (SMILES) | EC50 [1] | EC50 (Trypanosoma brucei) | IC50 [2] | EC50 [3] | CC50 at 30 h [4] | EC50 (Trypanosoma congolense) | EC50 [5] | EC50 [6] | Ratio EC50 [7] | Ratio EC50 [8] | Ratio EC50 [9] | Ratio EC50 [10] | selectivity ratio [11] | selectivity ratio [12] | selectivity ratio [13] | CC50 at 30 h [14] |
| --- | --- | --- | --- | --- | --- | --- | --- | --- | --- | --- | --- | --- | --- | --- | --- | --- |
| Cc1cc(O)ccc1C(=O)OCCCCCCCCCCCCCCOC(=O)c1ccc(O)cc1C | 400 µM | 400 µM | 0.013 µM | 400 µM | > 200 µM | 400 µM | 400 µM | 400 µM |  |  |  |  |  |  |  |  |
| O=C(OCCCCCCCCCCCCCCCC[P+](c1ccccc1)(c1ccccc1)c1ccccc1)c1ccc(O)cc1O |  |  | > 5 µM |  |  |  |  |  |  |  |  |  |  |  |  |  |
| O=C(OCCCCCCCCCCCCCC[P+](c1ccccc1)(c1ccccc1)c1ccccc1)c1ccc(O)cc1O |  |  | 1.46 µM |  |  |  |  |  |  |  |  |  |  |  |  |  |
| O=COCCCCCCCCCCCCCCOc1ccc(C=O)c(O)c1 | 1.8 µM | 3.6 µM | 0.33 µM | 3.8 µM | > 200 µM |  | 1.4 µM | 1.82 µM | 0.48 | 0.38 | 1 | 0.48 | > 52 |  |  |  |
| N=C(N)c1ccc(/N=N/Nc2ccc(C(=N)N)cc2)cc1 [DIMINAZENE] |  |  |  |  |  | 0.2 µM |  |  |  |  | 12 |  |  |  |  |  |
| Cc1cc(O)ccc1C(=O)OCCCCCCCCCCCCCCBr | 7.5 µM | 14.4 µM | 0.007 µM | 14.4 µM | > 200 µM |  | 7.1 µM | 7.2 µM | 0.5 | 0.49 | 1 | 0.52 | > 13 |  |  |  |
| Cc1cc(O)ccc1C(=O)O |  |  | 112 µM |  |  |  |  |  |  |  |  |  |  |  |  |  |
| Cc1cc(O)cc(O)c1C(=O)OCCCCCCCCCCCCCCBr | 7.71 µM | 15.6 µM | 0.007 µM | 14.6 µM | > 200 µM | > 100 µM | 7.3 µM | 6.8 µM | 0.47 | 0.5 | 1.1 | 0.53 | > 13 |  |  |  |
| O=Cc1ccc(OCCCCCCCCCCCCCC[n+]2cccc3ccccc32)cc1O.[Br-] | 1.23 µM | 2.35 µM | 1.23 µM | 1.75 µM | > 200 µM | 2.1 µM | 0.95 µM | 1.08 µM | 0.62 | 0.54 | 1.3 | 0.7 | > 114 | > 95 |  |  |
| O=C(OCCCCCCCCCCCCCCCCOC(=O)c1ccc(O)cc1O)c1ccc(O)cc1O | 12.4 µM | 31.9 µM | 0.0123 µM | 26.7 µM |  | > 100 µM | 14.3 µM | 9.3 µM | 0.35 | 0.54 | 1.2 | 0.46 |  |  | > 15 | > 400 µM |
| O=C(OCCCCCCCCCCCCCCBr)c1ccc(O)cc1O |  |  | 0.0108 µM |  |  |  |  |  |  |  |  |  |  |  |  |  |
| O=C(O)c1ccc(O)cc1O [2,4-DIHYDROXYBENZOIC ACID] |  |  | 116 µM |  |  |  |  | 16.6 µM | 0.96 |  |  |  |  |  |  |  |
| O=C(OCCCCCCCCCCCCOC(=O)c1ccc(O)cc1O)c1ccc(O)cc1O | 13.6 µM | 33.6 µM | 0.007 µM | 32.9 µM |  | > 100 µM | 26.7 µM | 8.9 µM | 0.27 | 0.81 | 1 | 0.41 |  |  | > 12 | > 400 µM |
| O=C(OCCCCCCCCCCCCCCCCBr)c1ccc(O)cc1O | 11.1 µM |  | 0.0124 µM |  |  |  | 14.5 µM | 5.1 µM | 0.11 | 0.32 | 1.07 | 0.24 |  |  | > 8 | > 400 µM |
